Test results reported in patent US8623860B2, “Azetidine derivatives, pharmaceutical compositions and uses thereof” (Boehringer Ingelheim International GmbH, priority 2011, dated 2014).

Biological target: human ACC2 (Homo sapiens (Human), UniProt O00763)
Test: ACC2 assay, spectrophotometric 384 well assay (NADH-linked, coupled lactate dehydrogenase/pyruvate kinase reaction)
Format: biochemical
Conditions: hACC2 construct lacking the 128 N-terminal amino acids; 25° C., 340 nm, 15 minutes
Procedure: Spectrophotometric 384 Well Assay
Malonyl CoA formation by acetyl CoA carboxylases is stoichometrically linked to the consumption of ATP. ACC2 activity is measured in a NADH-linked kinetic method measuring ADP generated during the ACC reaction using a coupled lactate dehydrogenase/pyruvate kinase reaction.
For biological testing, a human ACC2 construct which lacks the 128 amino acids at the N-terminus for increased solubility (nt 385-6966 in Genbank entry AJ575592) is cloned. The protein is then expressed in insect cells using a baculoviral expression system. Protein purification is performed by anion exchange.
All compounds are dissolved in dimethyl sulfoxide (DMSO) to a concentration of 10 mM.
Assay reactions are then carried out in 384-well plates, with hACC2 in an appropriate dilution and at final assay concentrations (f.c.) of 100 mM Tris (pH 7.5), 10 mM trisodium citrate, 25 mM KHCC3, 10 mM MgCl2, 0.5 mg/ml BSA, 3.75 mM reduced L-glutathione, 15 U/ml lactate dehydrogenase, 0.5 mM phosphoenolpyruvate, 15 U/ml pyruvate kinase, compounds at different concentrations at final DMSO concentrations of 1%.
The enzymatic reaction is then started by addition of a mixture of NADH, acetyl Coenzyme A (both 200 μM f.c.) and ATP (500 uM f.c.). The decrease of the optical density (slope S) is then determined at 25° C. at a wavelength of 340 nm over 15 minutes in a spectrophotometric reader.
Each assay microtiter plate contains wells with vehicle instead of compound as controls for the non-inhibited enzyme (100% CTL; ‘HIGH’) and wells without acetyl-CoA as controls for non-specific NADH degradation (0% CTL; ‘LOW’).
The slope S is used for calculation of % CTL=(S(compound)−S(‘LOW’))/(S(‘HIGH’)−S(‘LOW’))*100. Compounds will give values between 100% CTL (no inhibition) and 0% CTL (complete inhibition).
For IC50 value determination, the sample slope in the presence of the test compound after subtraction of the low controls (S(compound)−S(‘LOW’)) are used.
An IC50 value is derived from the compound slopes at different dosages after subtraction of the low controls (S(compound)−S(‘LOW’)) by non-linear regression curve fitting (equation y=(A+((B−A)/(1+((C/x)^D))))).
In the following table the activity expressed as IC50 (μM) of compounds according to the invention is presented wherein the IC50 values are determined in the ACC2 assay as described hereinbefore. The term “Ex.” refers to the example numbers according to the following experimental section.

Sequence of human ACC2 (O00763 129-2458): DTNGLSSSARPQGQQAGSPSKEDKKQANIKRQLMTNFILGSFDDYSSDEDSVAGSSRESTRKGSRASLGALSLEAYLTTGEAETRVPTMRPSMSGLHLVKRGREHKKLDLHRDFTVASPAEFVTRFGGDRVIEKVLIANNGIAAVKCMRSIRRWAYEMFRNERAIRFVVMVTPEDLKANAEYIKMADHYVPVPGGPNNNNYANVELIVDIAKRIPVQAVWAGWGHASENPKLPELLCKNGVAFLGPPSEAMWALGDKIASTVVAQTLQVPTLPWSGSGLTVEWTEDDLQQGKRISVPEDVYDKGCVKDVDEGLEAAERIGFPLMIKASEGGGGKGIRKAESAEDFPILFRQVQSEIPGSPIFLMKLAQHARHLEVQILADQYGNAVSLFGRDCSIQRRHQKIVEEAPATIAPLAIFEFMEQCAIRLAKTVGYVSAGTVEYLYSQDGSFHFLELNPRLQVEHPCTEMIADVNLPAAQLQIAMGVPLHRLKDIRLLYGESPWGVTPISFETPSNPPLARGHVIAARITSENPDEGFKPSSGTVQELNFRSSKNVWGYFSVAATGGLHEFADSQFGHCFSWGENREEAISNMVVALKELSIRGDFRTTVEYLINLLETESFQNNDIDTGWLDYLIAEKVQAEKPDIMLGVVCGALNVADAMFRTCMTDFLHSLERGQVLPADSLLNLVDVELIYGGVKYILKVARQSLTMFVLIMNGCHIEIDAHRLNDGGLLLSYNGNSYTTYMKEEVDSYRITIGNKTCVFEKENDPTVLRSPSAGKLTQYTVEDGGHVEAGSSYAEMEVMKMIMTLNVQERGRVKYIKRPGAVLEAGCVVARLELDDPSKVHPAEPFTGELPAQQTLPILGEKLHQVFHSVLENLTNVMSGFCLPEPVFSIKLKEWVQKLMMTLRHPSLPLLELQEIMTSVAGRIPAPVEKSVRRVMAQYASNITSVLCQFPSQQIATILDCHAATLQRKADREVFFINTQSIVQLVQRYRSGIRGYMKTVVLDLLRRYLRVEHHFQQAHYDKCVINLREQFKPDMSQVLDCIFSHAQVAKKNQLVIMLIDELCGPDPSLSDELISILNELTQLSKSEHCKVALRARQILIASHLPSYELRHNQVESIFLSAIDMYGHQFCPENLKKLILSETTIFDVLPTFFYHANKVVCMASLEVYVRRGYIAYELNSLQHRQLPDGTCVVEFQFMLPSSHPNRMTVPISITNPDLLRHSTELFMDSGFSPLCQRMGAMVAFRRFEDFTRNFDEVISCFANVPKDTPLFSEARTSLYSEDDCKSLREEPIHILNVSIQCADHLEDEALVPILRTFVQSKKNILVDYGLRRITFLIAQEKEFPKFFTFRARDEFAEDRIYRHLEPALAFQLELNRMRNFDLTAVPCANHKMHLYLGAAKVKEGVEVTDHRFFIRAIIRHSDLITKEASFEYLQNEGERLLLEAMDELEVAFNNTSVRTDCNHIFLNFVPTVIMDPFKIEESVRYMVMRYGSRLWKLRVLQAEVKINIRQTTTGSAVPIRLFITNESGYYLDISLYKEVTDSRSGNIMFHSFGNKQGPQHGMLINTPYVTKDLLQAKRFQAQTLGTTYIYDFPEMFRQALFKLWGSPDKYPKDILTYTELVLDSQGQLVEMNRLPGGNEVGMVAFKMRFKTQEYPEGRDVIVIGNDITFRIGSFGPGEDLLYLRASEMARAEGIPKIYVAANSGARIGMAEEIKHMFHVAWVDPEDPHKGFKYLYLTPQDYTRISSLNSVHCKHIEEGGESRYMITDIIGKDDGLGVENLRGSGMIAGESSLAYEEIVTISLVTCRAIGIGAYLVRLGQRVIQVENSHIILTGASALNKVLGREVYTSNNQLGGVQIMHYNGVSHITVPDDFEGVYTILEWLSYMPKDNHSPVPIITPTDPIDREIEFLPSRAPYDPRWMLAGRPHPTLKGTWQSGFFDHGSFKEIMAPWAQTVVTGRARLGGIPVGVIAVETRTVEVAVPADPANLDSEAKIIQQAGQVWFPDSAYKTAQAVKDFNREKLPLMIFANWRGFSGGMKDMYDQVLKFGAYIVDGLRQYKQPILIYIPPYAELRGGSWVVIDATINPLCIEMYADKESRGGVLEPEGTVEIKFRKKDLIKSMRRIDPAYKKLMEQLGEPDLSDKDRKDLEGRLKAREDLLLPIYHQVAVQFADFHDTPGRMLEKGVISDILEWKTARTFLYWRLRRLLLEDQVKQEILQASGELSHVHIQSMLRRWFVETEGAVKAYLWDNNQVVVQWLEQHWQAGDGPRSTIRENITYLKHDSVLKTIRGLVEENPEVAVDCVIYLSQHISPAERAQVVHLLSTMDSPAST

| IC50 [µM] | Structure (SMILES) |
| --- | --- |
| 1.67 | C[C@H](NC(=O)Cc1cccnc1)c1ccc(C2CN(c3ccc(OCC4CC4)cc3)C2)cc1 [Example 3.24] |
| 0.78 | CC(=O)Nc1cc(C(=O)N[C@@H](C)c2ccc(C3CN(c4ccc(OCC5CC5)cc4)C3)cc2)ccn1 [Example 3.59] |
| 1.06 | C[C@H](NC(=O)c1cn[nH]c1)c1ccc(C2CN(c3ccc(OCC4CC4)cc3)C2)cc1 [Example 3.02] |
| 2.73 | C[C@H](NC(=O)C1CNC(=O)C1)c1ccc(C2CN(c3ccc(OCC4CC4)cc3)C2)cc1 (stereo partly drawn) [Example 3.34] |
| 0.26 | CC(=O)NC(C)Cc1ccc(C2CN(c3ccc(OC4CCC4)cc3)C2)cc1 (stereo not drawn) [Example 1.02] |
| 1.1 | C[C@H](NC(=O)Cc1cncnc1)c1ccc(C2CN(c3ccc(OCC4CC4)cc3)C2)cc1 [Example 3.48] |
| 0.36 | C[C@H](NC(=O)C(F)F)c1ccc(C2CN(c3ccc(OCC4CC4)cc3)C2)cc1 [Example 3.85] |
| 2.96 | C[C@H](NC(=O)Cc1cc[nH]c1)c1ccc(C2CN(c3ccc(OCC4CC4)cc3)C2)cc1 [Example 3.21] |
| 0.68 | CCCOc1ncnc(N2CC(c3ccc([C@H](C)NC(C)=O)cc3)C2)c1Cl [Example 5.4] |
| 1.4 | C[C@H](NC(=O)c1ccon1)c1ccc(C2CN(c3ccc(OCC4CC4)cc3)C2)cc1 [Example 3.81] |
| 1.13 | CCOc1ccc(N2CC(c3ccc(C(C)NC(C)=O)cc3)C2)cc1 (stereo not drawn) [Example 1.19] |
| 7.76 | CC(=O)N[C@@H](C)c1ccc(C2CN(c3nnc(-c4ccccc4)s3)C2)cc1 [Example 2.11] |
| 0.51 | CCCOc1ccc(N2CC(c3ccc([C@H](C)NC(C)=O)cc3)C2)cc1 [Example 1.26] |
| 0.47 | CC(=O)N[C@@H](C)c1ccc(C2CN(c3cccc(C(F)(F)F)n3)C2)cc1 [Example 2.10] |
| 1.69 | CC(=O)Nc1ncc(C(=O)N[C@@H](C)c2ccc(C3CN(c4ccc(OCC5CC5)cc4)C3)cc2)s1 [Example 3.49] |
| 1.76 | CC(C)C(=O)N[C@@H](C)c1ccc(C2CN(c3ccc(OCC4CC4)cc3)C2)cc1 [Example 3.32] |
| 2.42 | C[C@H](NC(=O)C1(C)CC1)c1ccc(C2CN(c3ccc(OCC4CC4)cc3)C2)cc1 [Example 3.26] |
| 1.97 | CC(=O)Nc1nc(C)c(C(=O)N[C@@H](C)c2ccc(C3CN(c4ccc5c(c4)OCCO5)C3)cc2)s1 [Example 3.72] |
| 1.33 | CC(F)C(=O)N[C@@H](C)c1ccc(C2CN(c3ccc(OCC4CC4)cc3)C2)cc1 (stereo partly drawn) [Example 3.55] |
| 0.85 | CC(=O)N[C@@H](C)c1ccc(C2CN(c3ncc(C(F)(F)F)cn3)C2)cc1 [Example 2.15] |

| Structure (SMILES) | IC50 [µM] |
| --- | --- |
| CC(Cc1ccc(C2CN(c3ccc(OCC4CC4)cc3)C2)cc1)NC(=O)CF (stereo not drawn) [Example 3.14] | 1.77 |
